From the supplement of paper PMC10307832

Tests used:
Assay in all cases: relative viability (nuclei count vs DMSO), 5 days (fraction); higher = more cells survive
Tipifarnib + Alpelisib = compound: Cn1cncc1[C@@](N)(c1ccc(Cl)cc1)c1ccc2c(c1)c(-c1cccc(Cl)c1)cc(=O)n2C [Tipifarnib] + Cc1nc(NC(=O)N2CCC[C@H]2C(N)=O)sc1-c1ccnc(C(C)(C)C(F)(F)F)c1 [Alpelisib] (partner 2 µM)
How it was run: (§1)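 For relative viability, nuclei counts in treated wells were divided by those in vehicle wells. Lung cancer cell lines had been pin-tool dosed in 1536-well plates the day after seeding and cultured for 5 days, then fixed and stained in one step (final 0.05% Triton X-100, 1% formaldehyde, 1 ug/ml Hoechst) and imaged at 4×. Doses were one drug alone or a fixed anchor-drug dose plus five library-drug doses (not always all listed) in √10 steps, and values are duplicate-plate medians.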

Tipifarnib + Tozasertib = compound: Cn1cncc1[C@@](N)(c1ccc(Cl)cc1)c1ccc2c(c1)c(-c1cccc(Cl)c1)cc(=O)n2C [Tipifarnib] + Cc1cc(Nc2cc(N3CCN(C)CC3)nc(Sc3ccc(NC(=O)C4CC4)cc3)n2)n[nH]1 [Tozasertib] (partner 0.1 µM)
How it was run: as §1

Tipifarnib + Dasatinib = compound: Cn1cncc1[C@@](N)(c1ccc(Cl)cc1)c1ccc2c(c1)c(-c1cccc(Cl)c1)cc(=O)n2C [Tipifarnib] + Cc1nc(Nc2ncc(C(=O)Nc3c(C)cccc3Cl)s2)cc(N2CCN(CCO)CC2)n1 [Dasatinib] (partner 0.075 µM)
How it was run: as §1

Tipifarnib + Luminespib = compound: Cn1cncc1[C@@](N)(c1ccc(Cl)cc1)c1ccc2c(c1)c(-c1cccc(Cl)c1)cc(=O)n2C [Tipifarnib] + CCNC(=O)c1noc(-c2cc(C(C)C)c(O)cc2O)c1-c1ccc(CN2CCOCC2)cc1 [Luminespib] (partner 0.01 µM)
How it was run: as §1

| Cell Line | relative viability (Tipifarnib + Alpelisib; first compound 0.01 µM) | relative viability (Tipifarnib + Alpelisib; first compound 0.03162 µM) | relative viability (Tipifarnib + Alpelisib; first compound 0.1 µM) | relative viability (Tipifarnib + Alpelisib; first compound 0.3162 µM) | relative viability (Tipifarnib + Alpelisib; first compound 1 µM) | relative viability (Tipifarnib + Tozasertib; first compound 0.01 µM) | relative viability (Tipifarnib + Tozasertib; first compound 0.03162 µM) | relative viability (Tipifarnib + Tozasertib; first compound 0.1 µM) | relative viability (Tipifarnib + Tozasertib; first compound 0.3162 µM) | relative viability (Tipifarnib + Tozasertib; first compound 1 µM) | relative viability (Tipifarnib + Dasatinib; first compound 0.01 µM) | relative viability (Tipifarnib + Dasatinib; first compound 0.03162 µM) | relative viability (Tipifarnib + Dasatinib; first compound 0.1 µM) | relative viability (Tipifarnib + Dasatinib; first compound 0.3162 µM) | relative viability (Tipifarnib + Dasatinib; first compound 1 µM) | relative viability (Tipifarnib + Luminespib; first compound 0.01 µM) | relative viability (Tipifarnib + Luminespib; first compound 0.03162 µM) | relative viability (Tipifarnib + Luminespib; first compound 0.1 µM) | relative viability (Tipifarnib + Luminespib; first compound 0.3162 µM) | relative viability (Tipifarnib + Luminespib; first compound 1 µM) |
| --- | --- | --- | --- | --- | --- | --- | --- | --- | --- | --- | --- | --- | --- | --- | --- | --- | --- | --- | --- | --- |
| 201T | 1.01 | 1.04 | 1.04 | 0.98 | 0.977 | 1.02 | 0.945 | 0.864 | 0.705 | 0.767 | 0.572 | 0.619 | 0.582 | 0.58 | 0.498 | 1.05 | 1.06 | 0.991 | 0.972 | 0.938 |
| A-427 | 1.21 | 1.1 | 1.06 | 1.02 | 0.952 | 0.164 | 0.205 | 0.227 | 0.171 | 0.211 | 0.753 | 0.719 | 0.598 | 0.494 | 0.326 | 0.828 | 0.877 | 0.849 | 0.691 | 0.548 |
| ABC-1 | 1.01 | – | 0.869 | 0.721 | 0.822 | 0.21 | – | 0.191 | 0.154 | 0.238 | 0.608 | – | 0.567 | 0.483 | 0.473 | 0.914 | – | 0.321 | 0.347 | 0.278 |
| BEN | 1.14 | 0.915 | 1.06 | 0.811 | 0.769 | 0.576 | 0.398 | 0.491 | 0.418 | 0.504 | 0.313 | 0.294 | 0.321 | 0.255 | 0.254 | 0.324 | 0.459 | 0.226 | 0.17 | 0.351 |
| CAL-12T | 1.33 | 0.851 | 0.555 | 0.417 | 0.693 | 0.277 | 0.278 | 0.241 | 0.188 | 0.246 | 0.256 | 0.287 | 0.519 | 0.198 | 0.18 | 0.284 | 0.335 | 0.267 | 0.151 | 0.15 |
| COR-L23 | 0.808 | 0.525 | 0.431 | 0.373 | 0.338 | 0.213 | 0.175 | 0.232 | 0.146 | 0.15 | 0.59 | 0.406 | 0.365 | 0.264 | 0.2 | 0.814 | 0.568 | 0.511 | 0.344 | 0.438 |
| COR-L 105 | 1.12 | 0.891 | 0.731 | 0.46 | 0.649 | 0.333 | 0.356 | 0.281 | 0.305 | 0.294 | 0.32 | 0.355 | 0.341 | 0.327 | 0.255 | 0.692 | 0.775 | 0.475 | 0.432 | 0.675 |
| Calu-6 | 0.831 | 0.667 | 0.609 | 0.412 | 0.505 | – | – | – | – | – | – | – | – | – | – | – | – | – | – | – |
| ChaGo-K-1 | – | – | – | – | – | 0.226 | 0.22 | 0.213 | 0.198 | 0.175 | 0.622 | 0.56 | 0.589 | 0.525 | 0.324 | 0.669 | 0.558 | 0.454 | 0.505 | 0.389 |
| EKVX | 0.895 | 0.883 | 0.83 | 0.595 | 0.652 | 0.447 | 0.331 | 0.397 | 0.348 | 0.297 | 0.543 | 0.613 | 0.512 | 0.508 | 0.641 | 0.95 | 0.856 | 0.41 | 0.776 | 0.496 |
| EMC-BAC-2 | 0.741 | 0.665 | 0.684 | 0.651 | 0.566 | 0.3 | 0.281 | 0.272 | 0.262 | 0.271 | 0.324 | 0.336 | 0.319 | 0.305 | 0.258 | 1.27 | 0.907 | 0.974 | 0.847 | 0.752 |
| EPLC-272H | 1.06 | 0.823 | 0.951 | 0.613 | 0.46 | 0.366 | 0.266 | 0.224 | 0.249 | 0.243 | 0.417 | 0.285 | 0.296 | 0.304 | 0.158 | 0.196 | 0.267 | 0.233 | 0.378 | 0.173 |
| H3255 | 0.759 | 0.734 | 0.627 | 0.482 | 0.497 | 0.72 | 0.674 | 0.528 | 0.476 | 0.389 | 0.3 | 0.375 | 0.421 | 0.463 | 0.344 | 1.13 | 0.873 | 0.846 | 0.654 | 0.53 |
| HARA | 0.924 | 0.792 | 0.781 | 0.662 | 0.653 | 0.123 | 0.0922 | 0.102 | 0.0898 | 0.0758 | 0.255 | 0.366 | 0.296 | 0.299 | 0.168 | 0.694 | 0.682 | 0.526 | 0.522 | 0.221 |
| HCC-15 | 0.827 | 0.646 | 0.584 | 0.451 | 0.367 | 0.242 | 0.227 | 0.227 | 0.153 | 0.174 | 0.627 | 0.556 | 0.444 | 0.377 | 0.168 | 0.332 | 0.306 | 0.245 | 0.302 | 0.357 |
| HCC-44 | 0.742 | 0.747 | 0.62 | 0.615 | 0.58 | 0.935 | 0.665 | 0.572 | 0.623 | 0.578 | – | – | – | – | – | 0.98 | 0.93 | 0.899 | 0.839 | 0.855 |
| HCC-78 | 0.41 | 0.314 | 0.317 | 0.271 | 0.292 | 0.403 | 0.371 | 0.388 | 0.32 | 0.297 | 0.327 | 0.428 | 0.273 | 0.371 | 0.266 | – | – | – | – | – |
